From US20080287490A1, “Bis-pyridino containing compounds for the use in the treatment of CNS pathologies” (UNIVERSITY OF KENTUCKY RESEARCH FOUNDATION, priority 2005, published 2008) come the findings set out here.

Read-outs that look alike come from different tables or passages of the source.

Series [1] addresses blood-brain barrier choline transporter. In kind it is in vivo, rat. How it is done: Blood-brain barrier choline transporter affinity assays. Quaternary ammonium analogs were evaluated for their ability to inhibit [^3H]-choline uptake into brain providing an indication of the ability of these analogs to interact with the choline transporter. These assays were conducted using the in situ rat brain perfusion method of Takasato, et al., Am. J. Physiol. 1984, 247, 484, as modified by Allen and Smith, J. Neurochem., 2001, 76, 1032. […] Ki values were compared by ANOVA followed by Bonferoni's multiple comparisons test to determine if an analog inhibits [^3H]-choline uptake.
Analog affinity for, and transport by, the blood-brain barrier choline transporter.

In series [2] the target is α4β2* nAChRs (Rattus norvegicus, UniProt P09483+P12390).
Method: (§1) Whole brain, excluding cortex and cerebellum, was homogenized in 20 ml of ice-cold buffer, containing (in mM): 2 HEPES, 11.8 NaCl, 0.48 KCl, 0.25 CaCl2 and 0.12 MgSO4, pH 7.5. Homogenate was centrifuged (25,000 g, 15 minutes, 4° C.). Pellets were resuspended in 20 ml of buffer and incubated at 37° C., for ten minutes, cooled to 4° C. and centrifuged (25,000 g, 15 minutes, 4° C.). Pellets were resuspended and centrifuged using the same conditions. Final pellets were stored in assay buffer, containing (in mM): 20 HEPES, 118 NaCl, 4.8 KCl, 2.5 CaCl2, and 1.2 MgSO4) pH 7.5 at −70° C. Upon use, final pellets were resuspended in ˜20 ml assay buffer. […] Control was in the absence of analog. […] Incubations proceeded for 60 minutes at room temperature using 96-well plates and were terminated by harvesting on Unifilter-96 GF/B filter plates presoaked in 0.5% polyethylenimine, using a Packard FilterMate harvester.
(§2) After washing five times with 350 μl ice-cold assay buffer, filter plates were dried (60 minutes, 49° C.), bottom-sealed, and filled with Packard's MicroScint 20 cocktail (40 μl/well). After 60 minutes, filter plates were top-sealed, and radioactivity determined using a Packard TopCount. Protein concentrations were determined using bovine serum albumin as the standard.
(§3) Whole brain was homogenized in 20 ml of ice-cold buffer (in mM: 2 HEPES, 11.8 NaCl, 0.48 KCl, 0.25 CaCl2, and 0.12 MgSO4, pH 7.5). Homogenates were centrifuged (25,000 g, 15 minutes, 4° C.). Pellets were resuspended in 20 ml of buffer and incubated at 37° C., for 10 minutes, cooled to 4° C. and centrifuged (25,000 g, 15 minutes, 4° C.). Pellets were resuspended and centrifuged again using the same conditions. Final pellets were stored at −70° C. in assay buffer (in mM: 20 HEPES, 118 NaCl, 4.8 KCl, 2.5 CaCl2, and 1.2 MgSO4, pH 7.5). Upon use, final pellets were resuspended in ˜20 ml assay buffer. […] Control was in the absence of analog. […] Incubation proceeded for 60 minutes at room temperature using 96-well plates and was terminated by harvesting on Unifilter-96 GF/B filter plates, presoaked in 0.5% polyethylenimine, using a Packard FiterMate harvester. After washing 5× with 350 μl ice-cold assay buffer, filter plates were dried (60 minutes, 49° C.), bottom-sealed, and filled with Packard's MicroScint 20 cocktail (40 μl/well). After 60 minutes, filter plates were top-sealed, and radioactivity determined. Protein concentration was determined using BSA as the standard.
In series [3] the target is α7* nAChRs (Rattus norvegicus, UniProt Q05941). To be noted: read-out: [^3H]MLA Binding Ki; Table 4; mean (95% confidence interval).
Method: as §1, §2, §3
In series [4] the target is nAChR mediating nicotine-evoked [^3H]DA release (α3β2* receptor subtype). In kind it is cell-based, rat. To be noted: read-out: IC50, S-(−)-nicotine-evoked [^3H]DA release. How it is done:
Slices were rinsed with 15 mL of fresh buffer and incubated for an additional 30 minutes in fresh buffer containing 0.1 μM [^3H]DA (6 slices/3 ml). Subsequently, slices were rinsed with 15 ml of fresh buffer and transferred to a glass superfusion chamber.
Radioactivity in the superfusate and tissue samples was determined by liquid scintillation spectroscopy. […] Basal [^3H]outflow was calculated from the average of the tritium collected in the two five minute samples just before addition of the bis-alkyl pyridino analog. […] [^3H]Overflow was calculated by subtracting the [^3H]outflow during an equivalent period of prestimulation from the values in samples collected during and after drug exposure. Inasmuch as the radiolabelled compounds were not separated and identified, the tritium collected in superfusate is referred to as either [^3H]outflow or [^3H]overflow, rather than as [^3H]DA.

Series [5] concerns nAChR subtypes mediating nicotine-evoked [^3H]-dopamine overflow. As to conditions: for IC50: read-out: Nicotine-evoked [^3H]DA Overflow IC50.
Method: [^3H]-Dopamine overflow from superfused striatal slices. […] Striatal coronal slices (500 μm, 4-6 mg) were obtained and incubated for 30 minutes in Krebs' buffer (in mM: 118 NaCl, 4.7 KCl, 1.2 MgCl2, 1 NaH2PO4, 1.3 CaCl2, 11.1 glucose, 25 NaHCO3, 0.11 L-ascorbic acid and 0.004 disodium EDTA, pH 7.4, saturated with 95% O2/5% CO2) in a metabolic shaker at 34° C. Slices were incubated with 0.1 μM (final concentration) of [^3H]-dopamine during the latter 30 minutes of the 60-minute incubation period. Each slice was transferred to a glass superfusion chamber maintained at 34° C. and superfused (1 ml/min) with Krebs' buffer containing nomifensine (10 μM) and pargyline (10 μM) to inhibit [^3H]-dopamine reuptake after release into the extracellular space, ensuring that [^3H]-overflow primarily represented [^3H]-dopamine. Sample collection (5-minute; 5 mL) began after 60 minutes of superfusion. […] At the end of the experiment, each slice was solubilized, and the [^3H]-content of the tissue determined. Release during each minute was normalized for total tissue [^3H]-content. Analog-induced intrinsic activity and inhibitory activity were determined using slices from the same rat (repeated-measures design).
The amount of [^3H] in each sample was calculated by dividing the total [^3H] collected in each sample by the total in the tissue at the time of sample collection (defined as fractional release). […] Data were analyzed by weighted, least squares regression analysis of the sigmoidal concentration-effect curves to obtain EC50 and IC50 values.
Striatal slices (500 μm, 4-6 mg) were incubated for 30 minutes in Krebs' buffer (in mM: 118 NaCl, 4.7 KCl, 1.2 MgCl2, 1 NaH2PO4, 1.3 CaCl2, 11.1 glucose, 25 NaHCO3, 0.11 L-ascorbic acid and 0.004 disodium EDTA, pH 7.4, saturated with 95% O2/5% CO2) in a metabolic shaker at 34° C. Slices were incubated with 0.1 μM (final concentration) [^3H]DA during the latter 30 minutes of the 60-minute incubation period. Each slice was transferred to a glass superfusion chamber maintained at 34° C. and superfused (1 ml/min) with Krebs' buffer containing nomifensine (10 μM) and pargyline (10 μM) to inhibit [^3H]DA reuptake and metabolism, respectively, after release into the extracellular space, ensuring that [^3H]overflow primarily represents [^3H]DA. Sample collection (5-minute; 5 ml) began after 60 minutes of superfusion. […] Thus, the ability of these analogs to elicit intrinsic activity (evoke [^3H]DA overflow) was determined. At the end of the experiment, each slice was solubilized and [^3H]content of the tissue determined. Release during each minute was normalized for total [^3H]content of the slice. Analog-induced intrinsic activity and inhibitory activity were determined using slices from the same rat (repeated-measures design).
Fractional release was calculated by dividing the total tritium collected in each sample by the total tritium in the tissue at the time of sample collection. […] Typically, data were analyzed by weighted, least squares regression analysis of sigmoidal concentration-effect curves to obtain EC50 and IC50 values.
For series [6], the target named is T1, α7-type neuronal nicotinic acetylcholine receptors (Rattus norvegicus, UniProt Q05941).
T1 construct: Rat brain was dissected into the whole brain tissue without cortex, striatum and cerebellum; from tissue; host or cells: rat brain (without cortex, striatum, cerebellum) membranes
Format: binding. As to conditions: read-out: Ki, [^3H]MLA binding. How it is done:
Rat brain was dissected into the whole brain tissue without cortex, striatum and cerebellum and was frozen in liquid nitrogen and stored at −70° C. until use.
The brain tissue was homogenized with a Tekmar Polytron (setting 40) in 20 volumes of ice-cold hypotonic buffer (2 mM HEPES, 14.4 mM NaCl, 0.15 mM KCl, 0.2 mM CaCl2 and 0.1 mM MgSO4, pH=7.5). The homogenate was incubated at 37° C. for ten minutes and centrifuged at 25,000×g for 15 minutes at […] The pellet was washed three times more by resuspension in the 20 volumes of the same buffer and centrifugation at the above parameters. The final pellet was stored at −20° C. under 4.6 ml of the incubation buffer and was suspended just before the incubation with radioligand.
[^3H]MLA (25.4 Ci/mmol) was purchased from Tocris Cookson Ltd., Bristol, U.K. Binding was performed in duplicate, in a final volume of 250 μl of the incubation medium, containing 20 mM HEPES, 144 mM NaCl, 1.5 mM KCl, 2 mM CaCl2, 1 mM MgSO4 and 0.05% BSA, pH=7.5. Reaction was initiated by the addition of 100 μl of membrane suspension to the samples containing a desired concentration of test compounds and […] [^3H] MLA (final concentration) and incubated for 2 hours at room temperature. […] The binding reaction was terminated by dilution of samples with 3 ml of ice-cold incubation buffer followed by immediate filtration through presoaked in 0.5% polyethylenimine glass fiber filters (S&S, grade #32) using a Brandel harvester system. Filters were rinsed three times with 3 ml of ice-cold buffer, transferred to scintillation-vials and 4 ml of scintillation cocktail was added. Protein was measured using the Bradford dye-binding procedure with bovine serum albumin as the standard.

In series [7] the target is T2, Rat Striatal Nicotinic Acetylcholine Receptors ([^3H]nicotine binding sites) (Rattus norvegicus, UniProt P09483+P12390).
T2 construct: Striata from two rats were dissected, pooled, and homogenized; from tissue; host or cells: rat striatum membranes
The series is described as follows: biochemical. As to conditions: read-out: Ki, specific binding of [^3H]-nicotine. On the procedure: Striata from two rats were dissected, pooled, and homogenized with a Tekmar polytron in 10 volumes of ice-cold modified Krebs-HEPES buffer (20 mM HEPES, 118 mM NaCl, 4.8 mM KCl, 2.5 mM CaCl2, 1.2 mM MgSO4, adjusted to pH 7.5). The homogenates were incubated at 37° C. for five minutes and centrifuged at 15,000 g for 20 minutes. The pellet was resuspended in ten volumes of ice-cold MilliQ water, incubated for five minutes at 37° C., and centrifuged at 15,000 g for 20 minutes The second pellet was then resuspended in ten volumes of fresh ice-cold 10% Krebs-HEPES buffer, incubated at 37° C., and centrifuged at 15,000 g for 20 minutes. The latter sequence of resuspension, incubation, and centrifugation was repeated. The pellet was frozen under fresh 10% Krebs-HEPES buffer and stored at −40° C. until assay. Upon assay, the pellet was resuspended in the Krebs-HEPES buffer, incubated at 37° C. for five minutes, and centrifuged at 15,000 g for 20 minutes. The final pellet was resuspended in 3.6 ml ice-cold MilliQ water which provided for approximately 200 μg protein per 100 μl aliquot. Competition assays were performed in duplicate in a final volume of 200 μl Krebs-HEPES buffer containing […] Tris buffer (pH 7.5 at 4° C.). […] After a 90 minute incubation at 4° C., reactions were terminated by dilution of the samples with 3 ml of ice-cold Krebs-HEPES buffer followed immediately by filtration through Whatman GF/B glass fiber filters (presoaked in 0.5% polyethyleneimine) using a Brandel Cell Harvester. Filters were rinsed three times with 3 ml of ice-cold Krebs-HEPES buffer, transferred to scintillation vials, and 5 ml scintillation cocktail (Research Products International Corp., Mt. Prospect, Ill.) added. […] Binding parameters were determined using the weighted, least squares non-linear regression.

Series [8] deals with T1, α7-type neuronal nicotinic acetylcholine receptors. The series is described as follows: biochemical. To be noted: read-out: Ki, [^3H]MLA binding.
The mark [9] stands for this setting: Table 8, single inhibitor concentration 10 or 250 μM, mean (standard error), read-out: Ki, affinity for the blood brain barrier choline transporter.
Setting [10] is: read-out: apparent Ki, inhibition of [^3H]-choline uptake into brain.
Setting [11] is: 500 μM choline in perfusion fluid.
Where [12] appears, read: rat striatal slices, nicotine 10 μM.
The mark [13] stands for this setting: rat brain membranes, […] [^3H]-MLA.
[14] abbreviates: rat striatal membranes, 3 nM [^3H]-nicotine.
The mark [15] stands for this setting: rat brain membranes, 2.5 nM [^3H]-MLA.

T2 sequence (P09483 31-630): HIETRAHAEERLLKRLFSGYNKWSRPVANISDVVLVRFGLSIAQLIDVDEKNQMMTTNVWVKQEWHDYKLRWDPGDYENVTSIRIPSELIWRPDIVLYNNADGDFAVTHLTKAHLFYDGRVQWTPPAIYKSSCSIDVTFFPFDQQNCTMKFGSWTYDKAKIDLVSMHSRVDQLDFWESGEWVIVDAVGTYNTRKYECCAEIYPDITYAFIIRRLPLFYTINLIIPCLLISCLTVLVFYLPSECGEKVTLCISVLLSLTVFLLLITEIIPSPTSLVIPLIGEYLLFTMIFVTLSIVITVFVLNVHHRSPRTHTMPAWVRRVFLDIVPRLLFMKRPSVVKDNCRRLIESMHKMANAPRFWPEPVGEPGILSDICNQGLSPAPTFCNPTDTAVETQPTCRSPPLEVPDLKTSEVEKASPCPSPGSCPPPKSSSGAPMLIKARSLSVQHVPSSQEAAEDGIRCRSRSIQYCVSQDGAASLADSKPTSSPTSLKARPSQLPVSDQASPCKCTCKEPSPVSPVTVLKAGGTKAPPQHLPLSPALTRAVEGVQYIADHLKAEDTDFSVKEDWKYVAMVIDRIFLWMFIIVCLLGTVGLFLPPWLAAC
T2 sequence (P12390 25-500): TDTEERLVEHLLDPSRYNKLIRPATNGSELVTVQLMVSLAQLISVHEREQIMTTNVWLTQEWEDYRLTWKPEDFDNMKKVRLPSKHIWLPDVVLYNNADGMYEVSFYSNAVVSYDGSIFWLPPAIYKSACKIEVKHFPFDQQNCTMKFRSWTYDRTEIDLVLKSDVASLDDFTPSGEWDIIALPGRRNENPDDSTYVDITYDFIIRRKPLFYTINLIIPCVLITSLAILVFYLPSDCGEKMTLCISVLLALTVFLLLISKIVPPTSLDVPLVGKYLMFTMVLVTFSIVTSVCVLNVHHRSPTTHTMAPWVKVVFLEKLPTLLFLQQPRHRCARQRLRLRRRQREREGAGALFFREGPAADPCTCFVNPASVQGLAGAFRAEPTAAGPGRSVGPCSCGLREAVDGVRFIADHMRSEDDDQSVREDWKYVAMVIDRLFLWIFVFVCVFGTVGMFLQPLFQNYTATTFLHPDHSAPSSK
T1 sequence (Q05941 23-502): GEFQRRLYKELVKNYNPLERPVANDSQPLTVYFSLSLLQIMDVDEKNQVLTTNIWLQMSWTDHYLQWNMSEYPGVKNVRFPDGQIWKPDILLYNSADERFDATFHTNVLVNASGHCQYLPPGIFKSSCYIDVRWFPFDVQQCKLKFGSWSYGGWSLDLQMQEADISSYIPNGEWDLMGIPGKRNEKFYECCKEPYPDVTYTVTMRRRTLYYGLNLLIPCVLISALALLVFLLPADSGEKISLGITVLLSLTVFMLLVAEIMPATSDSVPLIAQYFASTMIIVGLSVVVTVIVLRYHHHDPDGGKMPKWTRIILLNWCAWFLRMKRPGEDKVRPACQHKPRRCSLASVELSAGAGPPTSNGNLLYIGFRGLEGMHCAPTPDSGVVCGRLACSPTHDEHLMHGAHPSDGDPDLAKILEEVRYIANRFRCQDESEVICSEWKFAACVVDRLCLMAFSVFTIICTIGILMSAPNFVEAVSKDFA
α4β2* nAChRs, sequence (P09483 31-630): as the sequence (P09483 31-630) above
α4β2* nAChRs, sequence (P12390 25-500): as the sequence (P12390 25-500) above
α7* nAChRs, sequence (Q05941 23-502): as the sequence (Q05941 23-502) above

Take `CCCCCC[N+](C)(C)CCO` [N-n-Hexylcholine, reference compound]: the Ki in [1] (setting [9]) is 2.2 µM.

Turning to `CCCCCCCC[N+](C)(C)CCO` [N-n-Octylcholine, reference compound], the Ki in series [1] (setting [9]) turned out to be 1.7 µM.

In the case of `CCCCCCCC[n+]1ccccc1` [N-n-Octylpyridinium iodide], in [1] (setting [9]), the Ki is 32 µM.

On to `CCCC[n+]1cccc(C2CCCN2C)c1` (stereo not shown) [NBNI], for which the Ki in series [1] (setting [10]) came out at 777 ± 588 µM.

On to `CN1CCCC1c1ccc[n+](C)c1` (stereo not shown) [NMNI], for which the Ki in [1] (setting [10]) was greater than 1000 µM.

A word on the IC50: it is the concentration needed to halve the response being measured. For `CCCCCCCC[n+]1cccc([C@@H]2CCCN2C)c1.[I-]` [NONI], the “decrease of PA for [^3H]-NONI” value under setting [11] is roughly 25%. Besides, the “permeability-surface area product (PA) for [^3H]-NONI” value by setting is: under setting [11], 1.24±0.5×10^−3 ml/s/g; (no inhibitors present, single time point) 1.64±0.37×10^−3 ml/s/g. The “uptake (PA) of [^3H]-NONI” value (5 mM choline in perfusion fluid) is 7.55±3.30×10^−4 ml/s/g. Moreover, the “transfer coefficient value (Kin) for [^3H]-NONI uptake” value (rat brain, 0-60 seconds, absence of unlabeled NONI) is recorded as 1.59±0.14×10^−3 ml/s/g. In addition, under “unlabeled NONI 250 μM in perfusion fluid, 45 seconds uptake”, the “inhibition of [^3H]-NONI brain uptake by unlabeled NONI” value is 46%. The “mode of interaction with the high affinity [^3H]-nicotine binding site (Scatchard analyses)” value in [2] (no change in Bmax) was “competitive manner”. For the same compound, the Ki in [3] was 12 µM; in [6] (setting [13]), greater than 100 µM; in [1] (rat, in vivo, read-out: apparent Ki, inhibition of [^3H]-choline uptake into brain), 49 µM. In addition, the IC50 in [4] (setting [12]) was found to be 0.62 µM; in series [5] (Table 4, mean (95% confidence interval)) it was 0.62 µM. Besides, the “mode of interaction with nAChRs mediating nicotine-evoked dopamine release (Schild analysis)” value in series [5] is reported as “competitive manner”.

With `c1ccc2c[n+](CCCCCC[n+]3ccc4ccccc4c3)ccc2c1` [bIQHxI, N,N′-Hexane-1,6-diyl-bis-isoquinolinium Diiodide], the IC50 in series [4] (setting [12]) was greater than 100 µM. Besides, the Ki turned out to be 16 µM in [6] (setting [13]) and 17.9 µM in series [7] (setting [14]).

Regarding `c1ccc2c[n+](CCCCCCCC[n+]3ccc4ccccc4c3)ccc2c1` [bIQOI, N,N′-Octane-1,8-diyl-bis-isoquinolinium Diiodide], the IC50 in series [4] (setting [12]) worked out at 51.9 µM. The Ki in [8] (setting [15]) was 8.55 µM; in series [7] (setting [14]), greater than 100 µM.

For `c1ccc2c[n+](CCCCCCCCCCC[n+]3ccc4ccccc4c3)ccc2c1` [bIQUB, N,N′-Undecane-1,11-diyl-bis-isoquinolinium Dibromide], the IC50 in [4] (setting [12]) is 0.49 µM. In addition, the Ki in [8] (setting [15]) is 24.1 µM; in series [7] (setting [14]), 9.02 µM.

As to `CN1CCCC1c1ccc[n+](CCCCCCCCCC[n+]2cccc(C3CCCN3C)c2)c1` (stereo not shown) [bNDI, N,N′-Decane-1,10-diyl-bis-nicotinium Diiodide], the half-maximal inhibitory concentration (IC50) in [4] (setting [12]) is greater than 100 µM. Also, the Ki in series [8] (setting [15]) was greater than 100 µM; in [7] (setting [14]) it was 0.28 µM.

For `c1cc[n+](CCCCCCCCCCC[n+]2ccccc2)cc1` [bPUB, N,N′-Undecane-1,11′-diyl-bis-pyridinium Dibromide], the half-inhibitory concentration (IC50) in series [4] (setting [12]) is greater than 100 µM. Also, the values for the Ki in series [8] and in series [7] (setting [14]) were 50.2 µM and 14.4 µM, respectively.

Consider `c1ccc2c(c1)ccc[n+]2CCCCCC[n+]1cccc2ccccc21` [bQHxI, N,N′-Hexane-1,6-diyl-bis-quinolinium Diiodide], for which, in series [4] (setting [12]), the IC50 is greater than 100 µM. Moreover, the values for the Ki in series [6] (setting [13]) and in series [7] (setting [14]) were 13.3 µM and greater than 100 µM, respectively.

In the case of `c1ccc2c(c1)ccc[n+]2CCCCCCCCC[n+]1cccc2ccccc21` [bQNB, N,N′-Nonane-1,9-diyl-bis-quinolinium Dibromide], the IC50 in [4] (setting [12]) was 17.3 µM. Besides, the Ki in [8] (setting [15]) turned out to be 3.4 µM; in series [7] (setting [14]), 20.1 µM.

Regarding `c1ccc2c(c1)ccc[n+]2CCCCCCCCCCC[n+]1cccc2ccccc21` [bQUB, N,N′-Undecane-1,11-diyl-bis-quinolinium Dibromide], in series [4] (setting [12]), the IC50 came to 12 µM. Moreover, the Ki in series [8] (setting [15]) amounted to 2.44 µM; in series [7] (setting [14]), 38.3 µM.

Regarding “N,N′-Decane-1,10-diyl-bis-picolinium Diiodide [bPiDI]”, the IC50 in series [4] and in series [5] was 0.03 µM in each case. Also, the Ki in series [6] and in series [7] was greater than 100 µM in each case.

As to “N,N′-Hexane-1,6-diyl-bis-picolinium; Diiodide [bPiHxI]”, the IC50 in [4] and in series [5] was 1.66 µM in each case. Besides, the Ki in series [6] and in series [7] was greater than 100 µM in each case.

For “N,N′-Nonane-1,9-diyl-bis-picolinium Dibromide [bPiNB]”, the results for the Ki in series [2] (read-out: [^3H]Nicotine Binding Ki), in [6] and in [7] were 80 µM, greater than 100 µM and 66.7 µM, respectively.

With “N,N′-Octane-1,8-diyl-bis-picolinium Diiodide [bPiOI]”, the IC50 in series [4] (setting [12]) came out at 0.01 µM; in series [5] (Table 10, mean (standard error)) it was 0.01 µM. Further, the Ki in [6] (setting [13]) and in series [7] (setting [14]) was greater than 100 µM each time.

Take “N,N′-Undecane-1,11-diyl-bis-picolinium Dibromide [bPiUB]”: the IC50 in series [4] and in series [5] was 1.61 µM in each case. Besides, in series [6], the Ki is greater than 100 µM.

For α-Bungarotoxin [reference compound], in [6], the Ki was 0.0286 ± 0.0054 µM.
